≈ marks a conversion by molar mass, not a printed value. Entries after “also recorded” stand apart in the source; their conditions may differ. Where two headings read alike, the source gives them in different places. Values belong to the compound of their own block, whether it stands above or below them.
What was measured:
[1] = tested on: activity-regulated Gln/MeAIB transport (SNAT activity) in hippocampal neurons; test: Activity-regulated (spontaneous, 4-AP- or K+-stimulated) [14C]-MeAIB transport in primary hippocampal neurons; format: cell-based, rat; set-up: block of transport activity: dose or concentration left out as unconfirmed; conditions: for reduction of activity-regulated Gln/MeAIB transport after preconditioning: brief exposure (KCl 45 mM, Glu or NMDA), transport measured after 24 hr; for inhibition at 10 µM / IC50: Rattus norvegicus, Hippocampal neuron; for inhibition at 10 µM: read-out: block / inhibition of transport activity; for potency to inhibit activity-regulated MeAIB transport relative to a comparator, in words: spontaneous and 4-AP stimulated transport; for Active (annotation beside the compound name: active vs inactive derivatives): Table 1: SKA-41, and active and inactive derivatives
[2] = Max. solubility (Table 1); format: physicochemical
[3] = 4-AP-stimulated (depolarization) [14C]-MeAIB uptake, DIV16, n in brackets, read-out: SNAT Activity IC50, 4-AP
[4] = spontaneous [14C]-MeAIB uptake, DIV 19, n in brackets, read-out: SNAT Activity IC50, Spont
[5] = hippocampal neurons in vitro, 14C-MeAIB 20 μM, read-out: IC50 to inhibit activity-regulated Gln/MeAIB transport

Compound: [Cl-].[K+] [KCl]
reduction of activity-regulated Gln/MeAIB transport after preconditioning [1]: ~50%

Compound: CN[C@H](CC(=O)O)C(=O)O [NMDA, N-methyl-D-aspartate, reference compound]
reduction of activity-regulated Gln/MeAIB transport after preconditioning [1]: ~50%

Compound: Nc1nc(-c2ccc3ccccc3c2)c(F)s1
fold difference 4-AP IC50 over Spont IC50 [1]: 1.3 x
IC50 [1, 3]: 17.9 µM
IC50 [1, 4]: 13.3 µM

Compound: Cc1ccc(-c2nc(N)sc2Cl)c2ccccc12
fold difference 4-AP IC50 over Spont IC50 [1]: 5.2 x
IC50 [1, 3]: 7.4 µM
IC50 [1, 4]: 1.4 µM

Compound: Nc1nc(-c2ccc3ccccc3c2)cs1 [SKA-76, 4-(Naphthalen-2-yl)thiazol-2-amine]
inhibition at 10 µM [1]: > 50%
inhibition of spontaneous activity-regulated 14C-MeAIB transport, in words ([1]; screens, 10 μM, GABA 2 mM): inhibited spontaneous transport activity
potency to inhibit activity-regulated MeAIB transport relative to a comparator, in words [1]: much less potent than riluzole
solubility [2]: 25 µM (≈ 5.66 µg/mL)

Compound: Cc1ccc(-c2nc(N)sc2Br)c2ccccc12
fold difference 4-AP IC50 over Spont IC50 [1]: 4.4 x
IC50 [1, 3]: 4.4 µM
IC50 [1, 4]: 1 µM

Compound: Nc1nc(-c2ccc3ccccc3c2)c(Cl)s1 [drawing 71]
fold difference 4-AP IC50 over Spont IC50 [1]: 1.5 x
IC50 [1, 3]: 9.3 µM
IC50 [1, 4]: 6.2 µM

Compound: CN[C@@H]1C[C@H]2O[C@@](C)([C@@H]1OC)n1c3ccccc3c3c4c(c5c6ccccc6n2c5c31)C(=O)NC4 [staurosporine, reference compound]
effect on PMA stimulation of 14C-MeAIB transport ([1]; staurosporine 200 nM): abolished

Compound: Nc1nc(-c2cccc3ccccc23)c(Cl)s1 [drawing 70]
fold difference 4-AP IC50 over Spont IC50 [1]: 4.3 x
IC50 [1, 3]: 5.2 µM
IC50 [1, 4]: 1.2 µM

Compound: Nc1nc(-c2ccc(OC(F)(F)F)cc2)c(Cl)s1
fold difference 4-AP IC50 over Spont IC50 [1]: 1.6 x
IC50 [1, 3]: 7.4 µM
IC50 [1, 4]: 4.6 µM

Compound: N[C@@H](CCC(=O)O)C(=O)O [Glu, glutamate]
reduction of activity-regulated Gln/MeAIB transport after preconditioning [1]: ~50%

Compound: COc1ccc(CCN(C)CCCC(C#N)(c2ccc(OC)c(OC)c2)C(C)C)cc1OC (stereo not drawn) [verapamil, reference compound]
inhibition of spontaneous activity-regulated 14C-MeAIB transport, in words [1]: blocked

Compound: CCCCCCCCCCCCCC(=O)O[C@@H]1[C@@H](C)[C@@]2(O)[C@@H](C=C(CO)C[C@]3(O)C(=O)C(C)=C[C@@H]23)[C@@H]2C(C)(C)[C@]12OC(C)=O [PMA, phorbal myristate acetate, reference compound]
stimulation of 14C-MeAIB transport ([1]; PMA 10 min prior to KCl (60 mM) depolarization): two-fold

Compound: Nc1nc(-c2ccc3ccccc3c2)c(Cl)s1 [SKA-379, 5-Chloro-4-(naphthalen-2-yl)thiazol-2-amine]
potency to inhibit activity-regulated MeAIB transport relative to a comparator, in words [1]: as active as SKA-219 and SKA-220, respectively

Compound: Nc1nnc(-c2cccc(Cl)c2Cl)c(N)n1 [lamotrigine, reference compound]
IC50 [1, 5]: 20 µM

Compound: Nc1ccncc1 [4-AP, 4-aminopyridine, reference compound]
maximal stimulation of high-affinity 14C-MeAIB transport ([1]; 200 μM 4-AP): ~2 ×

Compound: Cc1ccc(-c2csc(N)n2)c2ccccc12 [drawing 63]
fold difference 4-AP IC50 over Spont IC50 [1]: 4.5 x
IC50 [1, 3]: 11.7 µM
IC50 [1, 4]: 2.6 µM

Compound: O=C1NC(=O)C(c2ccccc2)(c2ccccc2)N1 [phenytoin, reference compound]
potency of riluzole relative to phenytoin to inhibit activity-regulated Gln/MeAIB transport [1]: 50 ×
IC50 [1, 5]: 57 µM

More lines, main results first:

melting point: 178 to 179 °C
solubility [2]: 50 µM (≈ 12 µg/mL)
Compound: Cc1ccc2cc(-c3csc(N)n3)ccc2c1 [SKA-198, 4-(6-Methylnaphthalen-2-yl)thiazol-2-amine]
inhibition at 10 µM [1]: > 50%
inhibition of spontaneous activity-regulated 14C-MeAIB transport, in words ([1]; screens, 10 μM, GABA 2 mM): inhibited spontaneous transport activity

solubility [2]: 50 µM (≈ 12.6 µg/mL)
Compound: Nc1nc(-c2ccc(-c3ccccc3)cc2)cs1 [SKA-232]

solubility [2]: 25 µM (≈ 5.66 µg/mL)
Compound: Nc1nc(-c2cccc3ccccc23)cs1 [SKA-75, 4-(Naphthalen-1-yl)thiazol-2-amine]
inhibition at 10 µM [1]: > 50%
inhibition of spontaneous activity-regulated 14C-MeAIB transport, in words ([1]; screens, 10 μM, GABA 2 mM): inhibited spontaneous transport activity
potency to inhibit activity-regulated MeAIB transport relative to a comparator, in words [1]: much less potent than riluzole

melting point: 108 °C
solubility [2]: 10 µM (≈ 3.34 µg/mL)
Compound: Cc1ccc(-c2csc(Nc3cccc(C(F)(F)F)c3)n2)cc1 [SKA-260, 4-(p-Tolyl)-N-(3-(trifluoromethyl)phenyl)thiazol-2-amine]

solubility [2]: 100 µM (≈ 19 µg/mL)
Compound: Cc1ccc(-c2csc(N)n2)cc1 [SKA-79]

solubility [2]: 50 µM (≈ 10.5 µg/mL)
Compound: Nc1nc(-c2ccc(Cl)cc2)cs1 [SKA-80]

solubility [2]: 10 µM (≈ 3.5 µg/mL)
Compound: Nc1nc(-c2ccc(-c3ccc(-c4csc(N)n4)cc3)cc2)cs1 [SKA-255]

melting point: 155 °C
solubility [2]: 10 µM (≈ 3.34 µg/mL)
Compound: Cc1ccc(-c2csc(Nc3ccc(C(F)(F)F)cc3)n2)cc1 [SKA-269, 4-(p-Tolyl)-N-(4-(trifluoromethyl)phenyl)thiazol-2-amine]

solubility [2]: 100 µM (≈ 17.5 µg/mL)
Compound: Cc1nc(-c2ccccc2)cs1 [SKA-88]

solubility [2]: 100 µM (≈ 19 µg/mL)
Compound: Cc1sc(N)nc1-c1ccccc1 [SKA-82]

solubility [2]: 100 µM (≈ 17.6 µg/mL)
Compound: Nc1nc(-c2ccccc2)cs1 [SKA-78]

solubility [2]: 50 µM (≈ 12 µg/mL)
Compound: Cc1ccc(-c2csc(N)n2)c2ccccc12 [SKA-190, 4-(4-Methylnaphthalen-1-yl)thiazol-2-amine]
block of transport activity [1]: 90%
inhibition at 10 µM [1]: 90%
Active (annotation beside the compound name: active vs inactive derivatives) [1]: SKA-190 Active
inhibition of spontaneous activity-regulated 14C-MeAIB transport, in words ([1]; screens, 10 μM, GABA 2 mM): blocked spontaneous transport activity; also recorded: inhibited spontaneous transport activity

solubility [2]: 100 µM (≈ 18.9 µg/mL)
Compound: Cc1nc(-c2ccccc2)c(C)s1 [SKA-89]
inhibition of spontaneous activity-regulated 14C-MeAIB transport, in words ([1]; screens, 10 μM, GABA 2 mM): inactive

melting point: 350 °C
solubility [2]: 50 µM (≈ 13.7 µg/mL)
Compound: Nc1nc(-c2ccc(-c3csc(N)n3)cc2)cs1 [SKA-230, 4,4′-(1,4-Phenylene)bis(thiazol-2-amine)]

melting point: 243 to 244 °C
solubility [2]: 10 µM (≈ 3.71 µg/mL)
Compound: Clc1ccc(Nc2nc(-c3cccc4ccccc34)cs2)cc1Cl [SKA-257, N-(3,4-Dichlorophenyl)-4-(naphthalen-1-yl)thiazol-2-amine]

solubility [2]: 100 µM (≈ 19.4 µg/mL)
Compound: Nc1nc(-c2ccc(F)cc2)cs1 [SKA-77]

melting point: 153 °C
solubility [2]: 10 µM (≈ 3.2 µg/mL)
Compound: FC(F)(F)c1ccc(Nc2nc(-c3ccccc3)cs2)cc1 [SKA-268, 4-Phenyl-N-(4-(trifluoromethyl)phenyl)thiazol-2-amine]

melting point: 225 °C
solubility [2]: 10 µM (≈ 3.03 µg/mL)
Compound: c1ccc(Nc2nc(-c3cccc4ccccc34)cs2)nc1 [SKA-258, 4-(Naphthalen-1-yl)-N-(pyridin-2-yl)thiazol-2-amine]

melting point: 135 to 137 °C
solubility [2]: 25 µM (≈ 6.31 µg/mL)
Compound: c1ccc(Nc2nc(-c3ccccc3)cs2)cc1 [SKA-292, N,4-Diphenylthiazol-2-amine]

solubility [2]: 100 µM (≈ 18.2 µg/mL)
Compound: Nc1nc(-c2ccsc2)cs1 [SKA-94]
inhibition of spontaneous activity-regulated 14C-MeAIB transport, in words ([1]; screens, 10 μM, GABA 2 mM): inactive

melting point: 135 °C
solubility [2]: 10 µM (≈ 3.7 µg/mL)
Compound: FC(F)(F)c1cccc(Nc2nc(-c3cccc4ccccc34)cs2)c1 [SKA-251, 4-(Naphthalen-1-yl)-N-(3-(trifluoromethyl)phenyl)thiazol-2-amine]

IC50 [1, 5]: ~2 µM
solubility [2]: 50 µM (≈ 12.7 µg/mL)
Compound: Cc1sc(N)nc1-c1ccc(C)c2ccccc12 [SKA-247, 5-Methyl-4-(4-methylnaphthalen-1-yl)thiazol-2-amine]
block of transport activity [1]: 90%
inhibition at 10 µM [1]: 90%
Active (annotation beside the compound name: active vs inactive derivatives) [1]: SKA-247 Active
inhibition of spontaneous activity-regulated 14C-MeAIB transport, in words ([1]; screens, 10 μM, GABA 2 mM): blocked spontaneous transport activity; also recorded: inhibited spontaneous transport activity

solubility [2]: 50 µM (≈ 12.7 µg/mL)
Compound: c1ccc(-c2csc(Nc3ccccn3)n2)cc1 [SKA-265, 4-Phenyl-N-(pyridin-2-yl)thiazol-2-amine]

Source: US11974988B2, “Neuroprotective compositions and methods of using the same” (The Board of Supervisors of Louisiana State Univer …, priority 2018, dated 2024)
